{"source": "patent US20170016037A1", "about": "“Method for Increasing the Solubility of Methionine by Mineral Addition and Acid Treatment” (CJ CHEILJEDANG CORPORATION, priority 2009, published 2017)", "key": {"[1]": {"settings": "cited from earlier work; for solubility in the aqueous solution: generally"}, "[2]": {"settings": "cited from earlier work"}, "[3]": {"settings": "pH 2; cited from earlier work"}}, "note": "Where two headings read alike, the source gives them in different places."}
{"smiles": "CSCCC(N)C(=O)O", "note": "(racemic) [DL-methionine]", "values": [{"measurement": "solubility in the aqueous solution", "setting": "[1]", "value": "about 5 % (w/v)"}, {"measurement": "solubility of DL-methionine with use of mineral", "setting": "[2]; U.S. Pat. No. 5,430,164, mineral", "value": "up to 12 % (w/v)"}, {"measurement": "result of the same experiment using DL-methionine", "setting": "as Example 1 (manganese sulfide, 0.1 M sulfuric acid; 50% solution), DL-methionine 99% Sigma", "value": "identical results"}, {"measurement": "result of the same experiment using DL-methionine", "setting": "as Example 2 (zinc sulfide, 0.1 M sulfuric acid; 50% solution)", "value": "identical results"}, {"measurement": "result of the same experiment using DL-methionine", "setting": "as Example 3 (3.75% minerals, 0.1 M sulfuric acid; 50% solution)", "value": "identical results"}, {"measurement": "result of the same experiment using DL-methionine", "setting": "as Example 4 (1.88% minerals, 0.1 M sulfuric acid; 50% solution)", "value": "identical results"}, {"measurement": "solubility of DL-methionine with acid treatment", "setting": "[3]", "value": "18 % (w/v)"}]}
{"smiles": "CSCC[C@H](N)C(=O)O", "note": "(racemic) [methionine]", "values": [{"measurement": "solubility of methionine in water", "setting": "[1]; room temperature, generally known", "value": "50 to 55", "unit": "mg/mL"}, {"measurement": "maximum methionine solution concentration", "setting": "[2]; U.S. Pat. No. 5,430,164, total 3.5 to 3.9 M minerals (3.35 M zinc sulfate, 0.167 to 0.569 M ferric chloride), 1 L", "value": "≤ 50", "unit": "%"}, {"measurement": "methionine solubility maximized by combination of mineral addition and acid addition", "setting": "summary statement, mineral amount less than 15% of the method used before", "value": 50, "unit": "%"}]}
{"smiles": "CSCC[C@H](N)C(=O)O", "note": "[L-methionine]", "values": [{"measurement": "solubility in the aqueous solution", "setting": "[1]", "value": "about 5 % (w/v)"}, {"measurement": "methionine solution concentration", "setting": "L-methionine crystal powder purified to 99% or more from fermentation/enzymatic conversion solution, same manner as Examples 1 to 4", "value": "≥ 50", "unit": "%"}, {"measurement": "solubility of L-methionine", "setting": "L-methionine-containing solution produced by fermentation and enzymatic conversion reaction", "value": "up to 35%"}]}
